Measured values from BigSolDB 2.1.

COc1cc(Cc2cnc(N)nc2N)cc(OC)c1OC
solubility (mole fraction) (in THF, 276.05 K): 0.000608 | solubility (mole fraction) (in THF, 281.81 K): 0.000714 | solubility (mole fraction) (in THF, 287.31 K): 0.000857 | solubility (mole fraction) (in THF, 292.65 K): 0.000987 | solubility (mole fraction) (in THF, 298.08 K): 0.00117 | solubility (mole fraction) (in THF, 303.12 K): 0.00137 | solubility (mole fraction) (in THF, 306.95 K): 0.00155 | solubility (mole fraction) (in THF, 311.69 K): 0.00178 | solubility (mole fraction) (in THF, 316.74 K): 0.00208 | solubility (mole fraction) (in THF, 321.34 K): 0.00244 | solubility (mole fraction) (in THF, 326.91 K): 0.00296 | solubility (mole fraction) (in THF, 333.87 K): 0.00377 | solubility (mole fraction) (in acetone, 276.94 K): 0.000456 | solubility (mole fraction) (in acetone, 282.12 K): 0.00054 | solubility (mole fraction) (in acetone, 288.62 K): 0.000664 | solubility (mole fraction) (in acetone, 292.94 K): 0.00076 | solubility (mole fraction) (in acetone, 297.96 K): 0.00089 | solubility (mole fraction) (in acetone, 304.17 K): 0.00108 | solubility (mole fraction) (in acetone, 309.34 K): 0.00128 | solubility (mole fraction) (in acetone, 314.34 K): 0.00149 | solubility (mole fraction) (in acetone, 319.07 K): 0.00173 | solubility (mole fraction) (in acetone, 323.51 K): 0.00199 | solubility (mole fraction) (in ethanol, 281.15 K): 0.000356 | solubility (mole fraction) (in ethanol, 287.25 K): 0.000461 | solubility (mole fraction) (in ethanol, 292.64 K): 0.000545 | solubility (mole fraction) (in ethanol, 297.95 K): 0.000681 | solubility (mole fraction) (in ethanol, 302.05 K): 0.000833 | solubility (mole fraction) (in ethanol, 307.85 K): 0.00105 | solubility (mole fraction) (in ethanol, 311.35 K): 0.00124 | solubility (mole fraction) (in ethanol, 315.24 K): 0.00151 | solubility (mole fraction) (in ethanol, 318.85 K): 0.00177 | solubility (mole fraction) (in ethanol, 323.95 K): 0.00223 | solubility (mole fraction) (in ethanol, 326.65 K): 0.00255 | solubility (mole fraction) (in ethanol, 330.66 K): 0.00309 | solubility (mole fraction) (in ethanol, 335.25 K): 0.00388 | solubility (mole fraction) (in isopropanol, 277.17 K): 0.000109 | solubility (mole fraction) (in isopropanol, 282.82 K): 0.000156 | solubility (mole fraction) (in isopropanol, 288.28 K): 0.000202 | solubility (mole fraction) (in isopropanol, 293.13 K): 0.000255 | solubility (mole fraction) (in isopropanol, 297.57 K): 0.000322 | solubility (mole fraction) (in isopropanol, 304.04 K): 0.000468 | solubility (mole fraction) (in isopropanol, 309.36 K): 0.000644 | solubility (mole fraction) (in isopropanol, 315.13 K): 0.00091 | solubility (mole fraction) (in isopropanol, 319.53 K): 0.00117 | solubility (mole fraction) (in isopropanol, 324.04 K): 0.00151 | solubility (mole fraction) (in isopropanol, 328.37 K): 0.0019 | solubility (mole fraction) (in isopropanol, 333.64 K): 0.00247 | solubility (mole fraction) (in methanol, 277.02 K): 0.000828 | solubility (mole fraction) (in methanol, 282.85 K): 0.001 | solubility (mole fraction) (in methanol, 288.09 K): 0.0012 | solubility (mole fraction) (in methanol, 293.03 K): 0.00143 | solubility (mole fraction) (in methanol, 298.17 K): 0.00173 | solubility (mole fraction) (in methanol, 304.24 K): 0.00217 | solubility (mole fraction) (in methanol, 309.36 K): 0.00265 | solubility (mole fraction) (in methanol, 314.12 K): 0.0032 | solubility (mole fraction) (in methanol, 319.06 K): 0.00392 | solubility (mole fraction) (in methanol, 323.53 K): 0.00471 | solubility (mole fraction) (in methanol, 328.15 K): 0.00571 | solubility (mole fraction) (in methanol, 333.73 K): 0.0072 | solubility (mole fraction) (in n-butanol, 276.35 K): 0.000157 | solubility (mole fraction) (in n-butanol, 282.63 K): 0.000254 | solubility (mole fraction) (in n-butanol, 287.96 K): 0.000359 | solubility (mole fraction) (in n-butanol, 292.84 K): 0.000473 | solubility (mole fraction) (in n-butanol, 298.46 K): 0.000635 | solubility (mole fraction) (in n-butanol, 303.72 K): 0.000844 | solubility (mole fraction) (in n-butanol, 308.84 K): 0.00106 | solubility (mole fraction) (in n-butanol, 313.36 K): 0.00133 | solubility (mole fraction) (in n-butanol, 318.45 K): 0.00175 | solubility (mole fraction) (in n-butanol, 323.73 K): 0.00235 | solubility (mole fraction) (in n-butanol, 329.21 K): 0.00306 | solubility (mole fraction) (in n-butanol, 333.73 K): 0.00386 | solubility (mole fraction) (in n-propanol, 277.35 K): 0.000278 | solubility (mole fraction) (in n-propanol, 283.63 K): 0.000328 | solubility (mole fraction) (in n-propanol, 288.97 K): 0.000414 | solubility (mole fraction) (in n-propanol, 294.05 K): 0.000531 | solubility (mole fraction) (in n-propanol, 298.93 K): 0.000677 | solubility (mole fraction) (in n-propanol, 303.84 K): 0.000866 | solubility (mole fraction) (in n-propanol, 308.44 K): 0.00109 | solubility (mole fraction) (in n-propanol, 314.54 K): 0.00148 | solubility (mole fraction) (in n-propanol, 319.17 K): 0.00186 | solubility (mole fraction) (in n-propanol, 323.48 K): 0.00231 | solubility (mole fraction) (in n-propanol, 328.57 K): 0.00298 | solubility (mole fraction) (in n-propanol, 334.15 K): 0.00392 | solubility (mole fraction) (in sec-butanol, 276.85 K): 0.000153 | solubility (mole fraction) (in sec-butanol, 283.66 K): 0.000179 | solubility (mole fraction) (in sec-butanol, 290.08 K): 0.0003 | solubility (mole fraction) (in sec-butanol, 294.67 K): 0.000422 | solubility (mole fraction) (in sec-butanol, 298.45 K): 0.000562 | solubility (mole fraction) (in sec-butanol, 303.74 K): 0.000758 | solubility (mole fraction) (in sec-butanol, 308.84 K): 0.00101 | solubility (mole fraction) (in sec-butanol, 313.35 K): 0.00131 | solubility (mole fraction) (in sec-butanol, 318.46 K): 0.00172 | solubility (mole fraction) (in sec-butanol, 323.56 K): 0.00231 | solubility (mole fraction) (in sec-butanol, 328.66 K): 0.0029 | solubility (mole fraction) (in sec-butanol, 333.74 K): 0.00377
